We go through 108 molecules from PubChem BioAssay AID608 (Sanford-Burnham Center for Chemical Genomics, 2007).

Active and inactive are the calls of the source. How the calls were made is not given here.

For orientation: Kd means the constant that tells how readily two partners part at equilibrium.

The test deals with Peptidyl-prolyl cis-trans isomerase FKBP1A (Homo sapiens) (UniProt P62942). The experiment in a line: FKBP12 binders, biophysical, NMR detection (AID 608). Conditions: NMR binding, purified FKBP12.
Peptidyl-prolyl cis-trans isomerase FKBP1A (Homo sapiens), sequence (P62942 whole entry, looked up): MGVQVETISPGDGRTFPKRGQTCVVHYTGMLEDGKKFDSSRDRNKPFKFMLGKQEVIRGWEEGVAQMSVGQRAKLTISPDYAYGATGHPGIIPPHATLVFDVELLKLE
For the molecule `Cc1nn(C)c(Cl)c1S(=O)(=O)N1CCOCC1`, the Kd was > 4 mM (inactive).

`COC(=O)c1cn(C(=O)OC)c2ccccc12`: the Kd is > 4 mM (inactive).

Regarding `CC1(C)CC(=O)c2sc(N)nc2C1`, the Kd is > 4 mM (inactive).

Consider `Cc1nc2ccc(NC(=O)N3CCOCC3)cc2s1`, for which the Kd is > 4 mM (inactive).

On to `CSc1ccc2nnc(-c3cccnc3)n2n1`, for which the Kd is > 4 mM (inactive).

For the molecule `Cc1nn(CC(=O)Nc2ccccn2)c(=O)c2ccccc12`, the Kd was > 4 mM (inactive).

Turning to `CC(C)=CCc1c(O)cc2occ(-c3ccc4c(c3)OCO4)c(=O)c2c1O`, the Kd was > 4 mM (inactive).

Turning to `C=CCSCC=C`, the Kd is > 4 mM (inactive).

Take `O=C(O)CCCN1CNC(=S)NC1`: the Kd is > 4 mM (inactive).

On to `CC(C)c1ccc(NC(=O)C(N)=O)cc1`, for which the Kd is > 4 mM (inactive).

For the molecule `O=C1CCCc2c1nc(-c1ccccc1)n2O`, the Kd is > 4 mM (inactive).

Take `CCCCn1c(=O)cc(O)c2ccccc21`: the Kd was > 4 mM (inactive).

As for `Nc1cccnc1Oc1ccc(F)cc1F`, the Kd is > 4 mM (inactive).

As for `CCOC(=O)CC1NCCNC1=O` (stereo not drawn), the Kd was > 4 mM (inactive).

On to `NC1=NC(=O)/C(=C\c2ccco2)S1`, for which the Kd was > 4 mM (inactive).

Consider `COC(=O)c1cncn1C`, for which the Kd is > 4 mM (inactive).

For `O=C(Nc1cccnc1)Nc1ccc2c(c1)OCO2`, the Kd is > 4 mM (inactive).

For the molecule `O=C(Nc1nc2ccccc2s1)c1ccc(=O)[nH]n1`, the Kd was > 4 mM (inactive).

With `Cc1n[nH]c(=O)c2ncn(C)c12`, the Kd was > 4 mM (inactive).

`Cc1ccc2nc(SCCC#N)nc(C)c2c1`: the Kd is > 4 mM (inactive).

Regarding `O=C(O)c1ccc(NC(=O)c2cccs2)cc1`, the Kd was > 4 mM (inactive).

As for `CN(C)c1ccc2c(=O)[nH][nH]c(=O)c2c1`, the Kd is > 4 mM (inactive).

Consider `O=C(O)c1cccc2c1OCCCO2`, for which the Kd is > 4 mM (inactive).

Take `Cc1n[nH]c(C)c1CN`: the Kd is > 4 mM (inactive).

Take `Nc1ccccc1C(=O)CC(N)C(=O)O` (stereo not drawn): the Kd was > 4 mM (inactive).

On to `O=C1N=C(N2CCOCC2)S/C1=C\c1cccnc1`, for which the Kd is > 4 mM (inactive).

`Nc1nc2ccc(S(N)(=O)=O)cc2s1`: the Kd is > 4 mM (inactive).

In the case of `Cc1cc(OCC(=O)N2CC(C)OC(C)C2)cc(C)c1Cl` (stereo not drawn), the Kd was > 4 mM (inactive).

As for `Cc1c(C(=O)Nc2ccccn2)oc2ccccc12`, the Kd is > 4 mM (inactive).

`CC(C)=NNC(=O)c1ccccc1`: the Kd was > 4 mM (inactive).

As to `COC(=O)c1ccc2snnc2c1`, the Kd is > 4 mM (inactive).

Consider `Cc1cc(=O)[nH]c(NCC(=O)O)n1`, for which the Kd is > 4 mM (inactive).

On to `O=C(CN1C(=O)c2cccc3cccc(c23)C1=O)NO`, for which the Kd was > 4 mM (inactive).

With `O=C(O)Cn1cc(C(=O)c2cccs2)c2ccccc21`, the Kd is > 4 mM (inactive).

`NC(=O)CC[C@H](N)C(=O)O`: the Kd is > 4 mM (inactive).

`Cc1[nH]c(=O)[nH]c(=O)c1N1CCOCC1`: the Kd was > 4 mM (inactive).

`NC(=O)CN1C(=O)c2cccc3cccc1c23`: the Kd was > 4 mM (inactive).

With `O=c1cccc2n1CC1CC2CN2CCCC[C@@H]12` (stereo partly drawn), the Kd is > 4 mM (inactive).

Regarding `Oc1ccc2c(c1)OCC1(O)Cc3cc(O)c(O)cc3C21` (stereo not drawn), the Kd is > 4 mM (inactive).

`CN(C)C(=O)c1ccc(-c2n[nH]c(=O)c3ccccc23)cc1`: the Kd is > 4 mM (inactive).

As for `Cn1nnc2cc(C(=O)N3CCSCC3)ccc21`, the Kd was > 4 mM (inactive).

Take `C[C@H]1C[C@@H](O)[C@]2(O)[C@@]13CC(=O)OC[C@@]2(C)[C@](C)(O)C(=O)C3`: the Kd was > 4 mM (inactive).

For the molecule `O=S(=O)(Nc1ccc(Br)cc1)N1CCCCC1`, the Kd was 0.669 mM.

As for `CCOC(=O)c1c(C)n([O-])c2ccccc2[n+]1=O`, the Kd is > 4 mM (inactive).

As to `CCn1cnc2sc(C(=O)O)c(C)c2c1=O`, the Kd is > 4 mM (inactive).

As to `O=c1ccc2ccc(O)cc2o1`, the Kd is > 4 mM (inactive).

In the case of `N#Cc1cc2c(nc1SCc1ccncc1)CCC2`, the Kd was > 4 mM (inactive).

Turning to `C[C@H](CCC(=O)O)[C@H]1CCC2C3C(CC[C@@]21C)[C@@]1(C)CC[C@@H](O)C[C@H]1C[C@H]3O` (stereo partly drawn), the Kd was > 4 mM (inactive).

On to `OCc1ccccc1CN1CCOCC1`, for which the Kd is > 4 mM (inactive).

Take `O=C(O)c1ccc2c(c1)OCCCO2`: the Kd is > 4 mM (inactive).

With `O=C(O)C1Cc2c([nH]c3ccccc23)CN1` (stereo not drawn), the Kd is > 4 mM (inactive).

As for `O=C(N1CCOCC1)N1CCN(c2ccccn2)CC1`, the Kd was > 4 mM (inactive).

Take `CCN(CC)S(=O)(=O)c1cccc2nsnc12`: the Kd is > 4 mM (inactive).

As for `c1ccc(-c2noc(-c3cccnc3)n2)nc1`, the Kd is > 4 mM (inactive).

Take `CCC(C)C(=O)OC1[C@@H]2CC3=C4CC(=O)O[C@@H](c5ccoc5)[C@]4(C)CCC3C(C)(C2=O)[C@@H](CC(=O)OC)C1(C)C` (stereo partly drawn): the Kd is > 4 mM (inactive).

As to `NS(=O)(=O)c1ccc(NC(=O)/C=C\C(=O)O)cc1`, the Kd was > 4 mM (inactive).

In the case of `O=C1CCNc2ccccc2N1`, the Kd was > 4 mM (inactive).

Take `c1ccc2c(c1)ncn2CCn1cnc2ccccc21`: the Kd is > 4 mM (inactive).

As for `c1ccc(-n2nnnc2-n2cnc3ccccc32)cc1`, the Kd was > 4 mM (inactive).

As for `C/C(=N\NC(N)=S)C(=O)O`, the Kd is > 4 mM (inactive).

On to `NC1=NC(=O)/C(=C/c2cccs2)S1`, for which the Kd is > 4 mM (inactive).

For `O=C1CSC(=S)N1N1C(=O)C2C3C=CC(C3)C2C1=O` (stereo not drawn), the Kd is > 4 mM (inactive).

Turning to `CC(C)=CCc1c(O)cc2oc(C)cc(=O)c2c1O`, the Kd is > 4 mM (inactive).

As for `Fc1cccc(Cl)c1CN1CCNCC1`, the Kd was > 4 mM (inactive).

With `NC(=O)CN=Cc1c(O)[nH]c2ccccc12`, the Kd is > 4 mM (inactive).

Turning to `CCC1C(=O)OCC1Cc1cncn1C` (stereo not drawn), the Kd is > 4 mM (inactive).

As for `NC(=O)CSc1ncnc2ccccc12`, the Kd is > 4 mM (inactive).

For `Cc1c(C(=O)Nc2ccncc2)oc2c1C(=O)CC(C)(C)C2`, the Kd is > 4 mM (inactive).

Take `CC(=O)Nc1ccc(N2C(=O)C=CC2=O)cc1C`: the Kd was > 4 mM (inactive).

Regarding `Cc1cc(N)no1`, the Kd is > 4 mM (inactive).

In the case of `Cc1c(-c2ccc(F)cc2)[n+](=O)c2c(n1[O-])CCC2`, the Kd is > 4 mM (inactive).

On to `O=C(O)c1ccc(N2CCOCC2)cc1`, for which the Kd is > 4 mM (inactive).

Regarding `COc1c2ccoc2c(OC)c2oc(=O)ccc12`, the Kd is > 4 mM (inactive).

For the molecule `C=CC(C1=CC(=O)C=CC1=O)c1ccccc1` (stereo not drawn), the Kd was > 4 mM (inactive).

With `CC(C)=CCCC1(C)C=Cc2c(O)c3c(c(CC=C(C)C)c2O1)OC12C(=CC4CC1C(C)(C)OC2(C/C=C(/C)C(=O)O)C4=O)C3=O` (stereo not drawn), the Kd is > 4 mM (inactive).

Take `CNC(=O)C(=O)NCc1ccc(C)cc1`: the Kd was > 4 mM (inactive).

`O=C(c1cc2ccccc2o1)N1CCOCC1`: the Kd result was “inactive”.

As for `CCn1cnc2scc(-c3ccccc3)c2c1=O`, the Kd is > 4 mM (inactive).

Take `Cn1cccc1C=C1C(=O)NC(=S)NC1=O`: the Kd is > 4 mM (inactive).

Take `Cc1nc2ccc(C(=O)O)cc2nc1C`: the Kd was > 4 mM (inactive).

Consider `COc1ccc(Cl)cc1NS(=O)(=O)N1CCOCC1`, for which the Kd result was “inactive”.

For `COCCOc1nc2ccccc2nc1C`, the Kd was > 4 mM (inactive).

Consider `Cc1cc2c(=O)n(C)c(SCC(N)=O)nc2s1`, for which the Kd was > 4 mM (inactive).

For `COC1=CC(=O)C=C(OC)C1=O`, the Kd was > 4 mM (inactive).

Consider `COc1ccc(Cc2nccc3cc(OC)c(OC)cc23)cc1OC`, for which the Kd is > 4 mM (inactive).

Regarding `CC(C)(C)C(=O)Nc1nnc(SCC(N)=O)s1`, the Kd is > 4 mM (inactive).

With `O=C(O)CSc1nc2ccccc2c(=O)[nH]1`, the Kd is > 4 mM (inactive).

In the case of `Cc1nc(N)sc1C(=O)N/N=C/c1ccncc1`, the Kd is > 4 mM (inactive).

Take `Cc1c(/C=N/O)cnn1C`: the Kd is > 4 mM (inactive).

With `CCOC(=O)c1cnc2n(c1=O)CCS2`, the Kd was > 4 mM (inactive).

On to `O=C(c1cc2ccccc2o1)N1CCCCCC1`, for which the dissociation constant (Kd) is 0.184 mM.

Take `COc1ccccc1NC(=O)c1ccc(Br)o1`: the Kd was > 4 mM (inactive).

On to `CCNC(CC(=O)Nc1ccc(O)cc1)C(=O)O` (stereo not drawn), for which the Kd is > 4 mM (inactive).

As for `CC1(C)N=C2C(=N)C=CC=C2N1O`, the Kd is > 4 mM (inactive).

With `C=CCSc1[nH]c(=O)cc(C)c1C(N)=O`, the Kd is > 4 mM (inactive).

`O=C(O)Cn1nnnc1-c1ccc(F)cc1`: the Kd was > 4 mM (inactive).

As to `O=C1C2C3CCC(O3)C2C(=O)N1c1cccc(F)c1` (stereo not drawn), the Kd was > 4 mM (inactive).

In the case of `O=C1CS/C(=N/N=C2CCCC2)N1`, the Kd was > 4 mM (inactive).

As for `CN1CCN(c2ccc(C(=O)O)cc2)CC1`, the Kd is > 4 mM (inactive).

With `O=C(Cc1cccs1)Nc1ccccn1`, the Kd was > 4 mM (inactive).

For the molecule `Cc1c(F)cccc1NS(=O)(=O)c1ccccc1C#N`, the Kd is > 4 mM (inactive).

As to `Cc1oc(-c2ccccc2)nc1CC(=O)O`, the Kd is > 4 mM (inactive).

As for `N/N=C/c1cccnc1`, the Kd was > 4 mM (inactive).

For the molecule `CP(C)(=O)c1cccc(C(=O)O)c1`, the Kd was > 4 mM (inactive).

Consider `Cc1nnc(N2CCN(c3ccccc3)CC2)[nH]c1=O`, for which the Kd is > 4 mM (inactive).

Take `O=C1c2ccccc2-c2ncnc3cccc1c23`: the Kd was > 4 mM (inactive).

In the case of `Cn1c(=O)c2c(n(C)c1=O)=NC1(CCCCC1)N=2`, the Kd is > 4 mM (inactive).

For the molecule `CCOc1ccc2nc(NS(C)(=O)=O)sc2c1`, the Kd was > 4 mM (inactive).
